Experimental data taken from patent US20160296586A1, “AGENT FOR PREVENTING OR AM[…] ENDOTHELIAL MALFUNCTION” (KYOWA HAKKO BIO CO., LTD., priority 2012, published 2016).

System: normal human umbilical vein endothelial cell (HUVEC)
Experiment: NO production: nitrite (NO2) in HUVEC culture supernatant by HPLC
Format: cell-based
Details: 24-hour culture, vs control (PBS), FIG. 1
Description: A normal human umbilical vein endothelial cell (HUVEC) line available from Clonetics (SanDiego, Calif., USA) was used with EGM-2 Bullet Kit medium containing 2% FBS (Takara Bio). The cells were cultured in at 37° C., in 5% CO2 incubator, and used for experiment after 4 to 6 passages. Citrulline and reduced glutathione were obtained from Kyowa Hakko Bio.
A cell suspension (0.45 mL) with the adjusted initial cell combination of 5×10^5 cells/mL was inoculated in a 24-well plate (IWAKI). After 40-hour culture, the media were replaced with those containing citrulline (final concentration 0.3 mM; citrulline group), reduced glutathione (final concentration 1 mM: high-dose glutathione group), and a citrulline and reduced glutathione mixture (citrulline final concentration 0.3 mM; glutathione final concentration 0.3 mM; citrulline+low -dose glutathione group). Media with the sole addition of solvent (PBS) were used as a control group. After 24-hour culture, the cell culture (100 μL) was centrifuged at 12,000 rpm for 10 minutes, and the concentration of nitrite (NO2), which is the stable NO metabolite, in culture supernatant was quantified by HPLC (ENO-20, EICOM).

Compound | effect on NO production (nitrite NO2 concentration in medium) (reduced glutathione final concentration 1 mM (high-dose)) | effect on NO production (nitrite NO2 concentration in medium) (citrulline final concentration 0.3 mM)
N[C@@H](CCC(=O)N[C@@H](CS)C(=O)NCC(=O)O)C(=O)O [glutathione, reduced glutathione] | no effect on NO production | –
NC(=O)NCCC[C@H](N)C(=O)O [citrulline] | – | no effect on NO production
